Source: publication PMC9768162, “Synthesis of macrocyclic nucleoside antibacterials and their interactions with MraY” (Nature Communications, 2022)
Values after ≈ are worked out from the molar mass of the structure shown. Values joined by “and” are separate entries in the source; they are usually repeats but may differ in a detail not shown here. Equal entries are not always repeated. Where two headings read alike, the source gives them in different places.

Key:
E. faecium = assay: Antibacterial activity, MIC by microdilution broth method (CLSI); type: cell-based, Enterococcus faecium; conditions: Enterococcus faecium, ATCC35667, 20 h, E. faecium ATCC 35667; CA-MHB, 37 °C, 20 h; read-out: MIC
S. aureus [1] = assay: as above; type: cell-based, Staphylococcus aureus; conditions: Staphylococcus aureus, ATCC29213, 20 h, S. aureus ATCC 29213; CA-MHB, 37 °C, 20 h
K. pneumoniae = assay: as above; type: cell-based; conditions: Klebsiella pneumoniae, ATCC13883; K. pneumoniae ATCC 13883; CA-MHB, 37 °C, 20 h
A. baumannii = assay: as above; type: cell-based; conditions: Acinetobacter baumannii, ATCC19606; A. baumannii ATCC 19606; CA-MHB, 37 °C, 20 h
P. aeruginosa = assay: as above; type: cell-based; conditions: Pseudomonas aeruginosa, ATCC27853; P. aeruginosa ATCC 27853; CA-MHB, 37 °C, 20 h
E. cloacae = assay: as above; type: cell-based; conditions: Enterobacter cloacae, ATCC13047; E. cloacae ATCC 13047; CA-MHB, 37 °C, 20 h
M. tuberculosis = assay: MIC in 7H9 liquid medium, 2 weeks; type: cell-based; conditions: Mycobacterium tuberculosis, 336 h, M. tuberculosis H37Rv, 37 °C, minimum concentration inhibiting at least 50% of growth
M. avium = assay: MIC in 7H9 liquid medium, 2 weeks; type: cell-based; conditions: Mycobacterium avium, ATCC25291, 336 h, M. avium ATCC 25291, 37 °C, minimum concentration inhibiting at least 50% of growth
Gram-positive bacteria = assay: Antibacterial activity against Gram-positive bacteria; type: cell-based; conditions: for antibacterial activity against Gram-positive bacteria: such as S. aureus and E. faecium
[2] = tested on: Gram-negative bacterial strains; assay: Antibacterial activity against Gram-negative bacteria; type: cell-based; conditions: four Gram-negative bacterial strains examined
MraYAA = MraYAA (Aquifex aeolicus, UniProt O66465); assay: UMP-Glo assay; conditions: for Normalized (UMP / Lipid I formed minus no-enzyme average), source data of Fig. 7a: replicates 1-3
E. coli = assay: Antibacterial activity, MIC by microdilution broth method (CLSI); conditions: E. coli ATCC 25922; CA-MHB, 37 °C, 20 h
[3] = biological target: T1, MraYSA (S. aureus MraY enzyme) (Staphylococcus aureus, UniProt Q2FZ93); assay: Fluorescence-based MraY inhibitory assay (dansylated Park's nucleotide); conditions: for MraYSA activity, source data of Fig. 7b, average: average of n=1-3
T1 sequence (Q2FZ93 1-321): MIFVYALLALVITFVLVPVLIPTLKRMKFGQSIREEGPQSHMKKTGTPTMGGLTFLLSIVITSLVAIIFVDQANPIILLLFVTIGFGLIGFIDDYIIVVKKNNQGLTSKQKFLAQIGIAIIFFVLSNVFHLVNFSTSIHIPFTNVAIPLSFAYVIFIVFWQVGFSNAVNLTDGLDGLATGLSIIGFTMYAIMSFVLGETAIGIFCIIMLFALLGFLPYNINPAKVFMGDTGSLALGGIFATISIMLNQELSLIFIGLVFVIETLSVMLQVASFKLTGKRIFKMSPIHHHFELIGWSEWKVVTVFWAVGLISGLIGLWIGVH

S. aureus [4] = conditions: S. aureus ATCC 29213; cited from earlier work
[5] = biological target: T1, MraYSA (S. aureus MraY enzyme); design: His tag (inferred from His-Trap purification); made in house; host or cells: E. coli; method as in PMID 27622529; conditions: read-out: MraYSA inhibitory activity IC50; cited from earlier work

Chain of MraYAA (O66465 whole entry): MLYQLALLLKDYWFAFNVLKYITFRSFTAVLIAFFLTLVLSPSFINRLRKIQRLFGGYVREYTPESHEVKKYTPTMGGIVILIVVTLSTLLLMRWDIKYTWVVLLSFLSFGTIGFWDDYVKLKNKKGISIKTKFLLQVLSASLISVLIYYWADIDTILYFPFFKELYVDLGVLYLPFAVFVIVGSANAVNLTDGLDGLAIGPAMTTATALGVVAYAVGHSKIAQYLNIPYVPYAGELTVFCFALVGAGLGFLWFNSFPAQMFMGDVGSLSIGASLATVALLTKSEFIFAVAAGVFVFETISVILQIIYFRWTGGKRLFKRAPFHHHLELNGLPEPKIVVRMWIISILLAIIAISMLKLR

| Structure (SMILES) | MIC (E. faecium) | MIC (S. aureus [1]) | MIC (K. pneumoniae) | MIC (A. baumannii) | MIC (P. aeruginosa) | MIC (E. cloacae) | MIC (M. tuberculosis) | MIC (M. avium) | antibacterial activity against Gram-positive bacteria (Gram-positive bacteria) | antibacterial activity against Gram-negative bacterial strains [2] | IC50 (MraYAA) | Normalized (UMP / Lipid I formed minus no-enzyme average), source data of Fig. 7a (MraYAA; inhibitor concentration 0.1) | Normalized (UMP / Lipid I formed minus no-enzyme average), source data of Fig. 7a (MraYAA; inhibitor concentration 0.4) | Normalized (UMP / Lipid I formed minus no-enzyme average), source data of Fig. 7a (MraYAA; inhibitor concentration 1) | Normalized (UMP / Lipid I formed minus no-enzyme average), source data of Fig. 7a (MraYAA; inhibitor concentration 5) | Normalized (UMP / Lipid I formed minus no-enzyme average), source data of Fig. 7a (MraYAA; inhibitor concentration 50) | MIC (E. coli) | IC50 [3] | MraYSA activity, source data of Fig. 7b, average ([3]; compound 0.0001 µM) | MraYSA activity, source data of Fig. 7b, average ([3]; compound 0.001 µM) | other results |
| --- | --- | --- | --- | --- | --- | --- | --- | --- | --- | --- | --- | --- | --- | --- | --- | --- | --- | --- | --- | --- | --- |
| CCCCCCCCCCCCCCCC(=O)O[C@@H]1[C@H](O)CN2C[C@H]1NC[C@H]1O[C@@H](O[C@H]([C@H]3O[C@@H](n4ccc(=O)[nH]c4=O)[C@H](O)[C@@H]3O)[C@H]2C(=O)O)[C@H](O)[C@@H]1O [SPM-2] | 16 µg/mL (≈ 20.4 µM) | > 64 µg/mL | > 64 µg/mL | > 64 µg/mL | > 64 µg/mL | > 64 µg/mL | > 32 µg/mL | 16 µg/mL (≈ 20.4 µM) | active | inactive | 9200 nM | 34.6720 and 31.83 and 31.8908 | 29.3499 and 29.56 and 31.6856 | 31.9846 and 31.04 and 28.7608 | 29.9822 and 25.5 and 23.2193 | 4.6362 and 4.593 and 4.08 | >64 µg/mL | 330 nM | 104.091 | 99.892 | MIC increase relative to SPM-1 (Gram-positive bacteria; Gram-positive pathogens): 4 fold; Normalized (UMP / Lipid I formed minus no-enzyme average), source data of Fig. 7a (MraYAA; inhibitor concentration 2.5): 26.0302 and 21.75 and 21.7826; Normalized (UMP / Lipid I formed minus no-enzyme average), source data of Fig. 7a (MraYAA; inhibitor concentration 12.5): 17.4410 and 14.04 and 12.8545; Normalized (UMP / Lipid I formed minus no-enzyme average), source data of Fig. 7a (MraYAA; inhibitor concentration 25): 11.3284 and 8.499 and 7.57; Normalized (UMP / Lipid I formed minus no-enzyme average), source data of Fig. 7a (MraYAA; inhibitor concentration 70): 3.9512 and 2.534 and 2.592; Normalized (UMP / Lipid I formed minus no-enzyme average), source data of Fig. 7a (MraYAA; inhibitor concentration 140): 2.0542 and 1.162 and 1.464; MraYSA activity, source data of Fig. 7b, average ([3]; compound 0.01 µM): 103.991; MraYSA activity, source data of Fig. 7b, average ([3]; compound 0.1 µM): 72.6566; MraYSA activity, source data of Fig. 7b, average ([3]; compound 1 µM): 26.5839; MraYSA activity, source data of Fig. 7b, average ([3]; compound 10 µM): 7.955; MraYSA activity, source data of Fig. 7b, average ([3]; compound 100 µM): 4.902 |
| CCCCCCCCCCCCCCCC(=O)O[C@@H]1[C@@H]2CN(C[C@@H]1O)[C@H](C(=O)O)[C@@H]([C@H]1O[C@@H](n3ccc(=O)[nH]c3=O)[C@H](O)[C@@H]1O)O[C@@H]1O[C@H](CN2)[C@@H](O)[C@H]1O [SPM-1] | 4 µg/mL (≈ 5.1 µM) | 2 µg/mL (≈ 2.55 µM) | > 64 µg/mL | > 64 µg/mL | > 64 µg/mL | > 64 µg/mL | 16 µg/mL (≈ 20.4 µM) | 2 µg/mL (≈ 2.55 µM) | active | inactive | 170 nM | 22.1835 and 21.2199 and 20.7564 | 6.5859 and 6.3347 and 6.5433 | 4.5308 and 4.5928 and 4.1831 | 0.1572 and 0.6868 and 0.8992 | 0.4734 and -0.0522 and 0.3348 | >64 µg/mL | 9.1 nM | 94.43 | 84.3881 | MIC (Gram-positive bacteria; range over S. aureus and E. faecium of Table 1, read-out: MIC against the Gram-positive pathogens): 2 to 4 µg/mL (≈ 2.55 to 5.1 µM); Normalized (UMP / Lipid I formed minus no-enzyme average), source data of Fig. 7a (MraYAA; inhibitor concentration 0.025): 27.4002 and 27.6068 and 25.0152; Normalized (UMP / Lipid I formed minus no-enzyme average), source data of Fig. 7a (MraYAA; inhibitor concentration 0.05): 23.6062 and 21.9589 and 21.8339; Normalized (UMP / Lipid I formed minus no-enzyme average), source data of Fig. 7a (MraYAA; inhibitor concentration 0.2): 13.2781 and 11.6659 and 13.2137; Normalized (UMP / Lipid I formed minus no-enzyme average), source data of Fig. 7a (MraYAA; inhibitor concentration 0.3): 8.4302 and 9.0267 and 7.4669; Normalized (UMP / Lipid I formed minus no-enzyme average), source data of Fig. 7a (MraYAA; inhibitor concentration 0.8): 3.6877 and 2.5343 and 3.6699; MraYSA activity, source data of Fig. 7b, average ([3]; compound 0.01 µM): 49.3175; MraYSA activity, source data of Fig. 7b, average ([3]; compound 0.1 µM): 11.924; MraYSA activity, source data of Fig. 7b, average ([3]; compound 1 µM): 3.067; MraYSA activity, source data of Fig. 7b, average ([3]; compound 10 µM): 2.786; MraYSA activity, source data of Fig. 7b, average ([3]; compound 100 µM): 7.015 |
| CCCCCCCCCCCCCCCCC[C@H]1CN(C)[C@@H]([C@H](O[C@@H]2O[C@H](CN)[C@@H](O)[C@H]2O)[C@H]2O[C@@H](n3ccc(=O)[nH]c3=O)[C@H](O)[C@@H]2O)C(=O)N(C)[C@@H]1C(=O)O [Carbacaprazamycin] |  |  |  |  |  |  |  |  |  |  |  |  |  |  |  |  |  |  |  |  | MIC (S. aureus [4]): 8 µg/mL (≈ 10 µM); IC50 [5]: 3.8 nM |
